Measurements taken from US10544143B2, “4-azaindole compounds” (BRISTOL-MYERS SQUIBB COMPANY, priority 2017, dated 2020).

Assays:
human TLR7 = human TLR7 (Homo sapiens (Human), UniProt Q9NYK1); test: TLR7 inhibition reporter assay (HEK-Blue SEAP); format: cell-based; details: HEK-Blue cells overexpressing human TLR7, SEAP reporter, gardiquimod 7.5 μM
human TLR8 = human TLR8 (Homo sapiens (Human), UniProt Q9NR97); test: TLR8 inhibition reporter assay (HEK-Blue SEAP); details: read-out: TLR8 IC50; HEK-Blue cells overexpressing human TLR8, SEAP reporter, R848 15.9 μM;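 note: SEAP driven by IFN-β minimal promoter carrying NF-κB and AP-1 sites, compounds dosed 0.05 nM to 50 µM for 22 h, inhibition scaled between agonist-plus-DMSO and reference-inhibitor wells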
human TLR9 = human TLR9 (Homo sapiens (Human), UniProt Q9NR96); test: TLR9 inhibition reporter assay (HEK-Blue SEAP); details: read-out: TLR9 IC50; HEK-Blue cells overexpressing human TLR9, SEAP reporter, ODN2006 5 nM;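 note: SEAP driven by an IFN-β minimal promoter with NF-κB and AP-1 sites, read after 22 h, compounds dosed 0.05 nM–50 µM, inhibition scaled between agonist plus DMSO and reference-inhibitor wells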
human TLR9, sequence (Q9NR96 26-1032): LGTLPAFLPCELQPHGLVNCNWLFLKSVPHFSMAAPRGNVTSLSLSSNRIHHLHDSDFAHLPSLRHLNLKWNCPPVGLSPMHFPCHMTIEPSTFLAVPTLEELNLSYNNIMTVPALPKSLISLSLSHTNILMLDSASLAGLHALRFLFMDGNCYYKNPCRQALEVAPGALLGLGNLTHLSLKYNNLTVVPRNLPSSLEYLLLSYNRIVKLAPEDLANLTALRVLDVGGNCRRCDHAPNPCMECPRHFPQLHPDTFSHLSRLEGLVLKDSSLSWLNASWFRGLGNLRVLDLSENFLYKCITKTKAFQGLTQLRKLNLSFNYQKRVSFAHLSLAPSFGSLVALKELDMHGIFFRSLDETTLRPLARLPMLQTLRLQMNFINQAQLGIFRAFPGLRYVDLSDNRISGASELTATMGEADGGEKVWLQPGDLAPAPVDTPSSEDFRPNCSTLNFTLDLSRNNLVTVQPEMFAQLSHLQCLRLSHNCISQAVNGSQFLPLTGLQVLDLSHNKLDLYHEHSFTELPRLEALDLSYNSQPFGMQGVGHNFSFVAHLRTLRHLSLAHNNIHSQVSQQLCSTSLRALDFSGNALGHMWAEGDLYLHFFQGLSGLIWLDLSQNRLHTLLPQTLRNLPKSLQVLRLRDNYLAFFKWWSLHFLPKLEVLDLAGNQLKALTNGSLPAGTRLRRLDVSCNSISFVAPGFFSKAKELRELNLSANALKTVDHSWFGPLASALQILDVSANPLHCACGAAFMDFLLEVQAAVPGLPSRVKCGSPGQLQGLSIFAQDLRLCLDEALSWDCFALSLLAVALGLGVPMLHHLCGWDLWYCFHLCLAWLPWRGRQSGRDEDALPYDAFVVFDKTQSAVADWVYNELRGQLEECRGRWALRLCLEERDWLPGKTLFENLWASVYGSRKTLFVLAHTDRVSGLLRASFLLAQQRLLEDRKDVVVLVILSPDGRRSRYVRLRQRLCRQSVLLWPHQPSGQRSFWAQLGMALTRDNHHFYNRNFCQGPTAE

human TLR7, sequence (Q9NYK1 27-1049): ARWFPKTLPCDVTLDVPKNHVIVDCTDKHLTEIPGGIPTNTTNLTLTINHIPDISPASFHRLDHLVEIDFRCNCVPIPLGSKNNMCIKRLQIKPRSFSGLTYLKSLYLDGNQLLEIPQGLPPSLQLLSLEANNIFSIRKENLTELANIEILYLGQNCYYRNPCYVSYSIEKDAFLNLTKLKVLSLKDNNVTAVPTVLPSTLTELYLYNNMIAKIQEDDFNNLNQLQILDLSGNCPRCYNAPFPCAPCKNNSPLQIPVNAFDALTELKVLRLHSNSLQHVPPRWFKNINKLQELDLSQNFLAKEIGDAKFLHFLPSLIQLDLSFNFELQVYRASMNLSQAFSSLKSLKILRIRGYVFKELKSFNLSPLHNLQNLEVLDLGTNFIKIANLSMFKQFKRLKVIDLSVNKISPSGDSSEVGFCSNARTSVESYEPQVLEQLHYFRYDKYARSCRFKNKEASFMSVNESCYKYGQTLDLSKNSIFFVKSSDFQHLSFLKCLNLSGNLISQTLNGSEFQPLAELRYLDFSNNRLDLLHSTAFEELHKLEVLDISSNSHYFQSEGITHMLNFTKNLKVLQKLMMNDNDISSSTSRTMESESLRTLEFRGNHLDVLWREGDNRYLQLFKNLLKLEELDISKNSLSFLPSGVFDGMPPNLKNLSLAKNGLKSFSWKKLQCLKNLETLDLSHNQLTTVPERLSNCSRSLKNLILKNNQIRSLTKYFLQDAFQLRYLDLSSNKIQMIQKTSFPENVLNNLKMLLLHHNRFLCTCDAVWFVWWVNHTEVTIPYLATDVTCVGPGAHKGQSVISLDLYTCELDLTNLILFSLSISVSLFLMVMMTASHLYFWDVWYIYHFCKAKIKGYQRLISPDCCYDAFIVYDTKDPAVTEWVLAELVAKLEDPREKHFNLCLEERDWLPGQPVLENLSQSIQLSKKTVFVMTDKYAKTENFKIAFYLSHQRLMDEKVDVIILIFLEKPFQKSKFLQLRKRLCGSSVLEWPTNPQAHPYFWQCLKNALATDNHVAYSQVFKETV
human TLR8, sequence (Q9NR97 27-1041): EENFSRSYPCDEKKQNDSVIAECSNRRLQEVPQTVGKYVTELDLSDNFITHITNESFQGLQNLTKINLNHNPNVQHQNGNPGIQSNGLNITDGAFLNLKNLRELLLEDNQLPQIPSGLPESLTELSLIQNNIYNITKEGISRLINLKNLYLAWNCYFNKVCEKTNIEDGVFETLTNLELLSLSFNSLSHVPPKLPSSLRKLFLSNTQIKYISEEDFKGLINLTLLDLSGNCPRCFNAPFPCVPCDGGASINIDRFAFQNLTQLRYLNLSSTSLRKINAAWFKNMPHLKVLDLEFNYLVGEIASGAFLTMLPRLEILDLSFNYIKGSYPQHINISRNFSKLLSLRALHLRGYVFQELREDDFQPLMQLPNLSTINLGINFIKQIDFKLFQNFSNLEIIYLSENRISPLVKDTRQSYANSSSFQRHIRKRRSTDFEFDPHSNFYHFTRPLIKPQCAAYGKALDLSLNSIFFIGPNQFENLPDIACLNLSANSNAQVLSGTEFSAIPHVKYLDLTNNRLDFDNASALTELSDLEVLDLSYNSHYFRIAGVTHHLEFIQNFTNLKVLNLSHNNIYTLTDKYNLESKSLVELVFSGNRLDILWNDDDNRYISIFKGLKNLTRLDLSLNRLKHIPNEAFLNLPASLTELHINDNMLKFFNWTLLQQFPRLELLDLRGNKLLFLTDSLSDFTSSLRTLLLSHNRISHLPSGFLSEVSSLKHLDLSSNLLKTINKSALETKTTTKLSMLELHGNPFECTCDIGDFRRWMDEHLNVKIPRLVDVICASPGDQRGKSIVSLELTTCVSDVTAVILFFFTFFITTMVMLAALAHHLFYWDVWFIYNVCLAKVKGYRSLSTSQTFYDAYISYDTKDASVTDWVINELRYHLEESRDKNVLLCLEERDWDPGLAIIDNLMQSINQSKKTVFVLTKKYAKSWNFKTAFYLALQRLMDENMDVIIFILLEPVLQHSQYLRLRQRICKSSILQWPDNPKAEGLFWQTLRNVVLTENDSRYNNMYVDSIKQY

CC(=O)N(C)C1CCC(c2ccc3[nH]c(-c4cn5ncnc5c(C)c4C)c(C(C)C)c3n2)CC1 (stereo not drawn) [Example 440]
IC50 (human TLR7): 6.4 nM | IC50 (human TLR8): 14 nM | IC50 (human TLR9): > 50000 nM

Cc1c(-c2[nH]c3ccc(C4CCC(N(CC#N)C5COC5)CC4)nc3c2C(C)C)cn2ncnc2c1C (stereo not drawn) [Example 441]
IC50 (human TLR7): 0.79 nM | IC50 (human TLR8): 0.63 nM | IC50 (human TLR9): 1660 nM

Cc1c(-c2[nH]c3ccc(C4CCC(N5CCN(C)C(=O)C5)CC4)nc3c2C(C)C)cn2ncnc2c1C (stereo not drawn) [Example 442]
IC50 (human TLR7): 3.7 nM | IC50 (human TLR8): 3.5 nM | IC50 (human TLR9): 18300 nM

Cc1c(-c2[nH]c3ccc(C4CCC(N(CCO)C5COC5)CC4)nc3c2C(C)C)cn2ncnc2c1C (stereo not drawn) [Example 444]
IC50 (human TLR7): 16 nM | IC50 (human TLR8): 5.2 nM | IC50 (human TLR9): 39200 nM

Cc1c(-c2[nH]c3ccc(C4CCC(N5CC(S(C)(=O)=O)C5)CC4)nc3c2C(C)C)cn2ncnc2c1C (stereo not drawn) [Example 445]
IC50 (human TLR7): 1.5 nM | IC50 (human TLR8): 3.6 nM | IC50 (human TLR9): 4890 nM

Cc1c(-c2[nH]c3ccc(C4CCC(NCCS(N)(=O)=O)CC4)nc3c2C(C)C)cn2ncnc2c1C (stereo not drawn) [Example 446]
IC50 (human TLR7): 0.91 nM | IC50 (human TLR8): 0.91 nM | IC50 (human TLR9): 364 nM

Cc1c(-c2[nH]c3ccc(C4CCC(NCCS(N)(=O)=O)CC4)nc3c2C(C)C)cn2ncnc2c1C (stereo not drawn) [Example 447]
IC50 (human TLR7): 1.7 nM | IC50 (human TLR8): 2.3 nM | IC50 (human TLR9): 1640 nM

Cc1c(-c2[nH]c3ccc(C4CCC(N5CC(S(C)(=O)=O)C5)CC4)nc3c2C(C)C)cn2ncnc2c1C (stereo not drawn) [Example 448]
IC50 (human TLR7): 7.5 nM | IC50 (human TLR8): 24 nM | IC50 (human TLR9): 7690 nM

CNC(=O)CN(C1CCC(c2ccc3[nH]c(-c4cn5ncnc5c(C)c4C)c(C(C)C)c3n2)CC1)C1COC1 (stereo not drawn) [Example 449]
IC50 (human TLR7): 323 nM | IC50 (human TLR8): 165 nM | IC50 (human TLR9): 18000 nM

Cc1c(-c2[nH]c3ccc(C4CCC(NCCS(C)(=O)=O)CC4)nc3c2C(C)C)cn2ncnc2c1C (stereo not drawn) [Example 450]
IC50 (human TLR7): 0.61 nM | IC50 (human TLR8): 0.71 nM | IC50 (human TLR9): 1190 nM

Cc1c(-c2[nH]c3ccc(C4CCC(NC5CCOCC5)CC4)nc3c2C(C)C)cn2ncnc2c1C (stereo not drawn) [Example 451]
IC50 (human TLR7): 0.48 nM | IC50 (human TLR8): 0.63 nM | IC50 (human TLR9): 1040 nM

Cc1c(-c2[nH]c3ccc(C4CCC(NCCS(C)(=O)=O)CC4)nc3c2C(C)C)cn2ncnc2c1C (stereo not drawn) [Example 452]
IC50 (human TLR7): 2.7 nM | IC50 (human TLR8): 4.4 nM | IC50 (human TLR9): 3090 nM

Cc1c(-c2[nH]c3ccc(C4CCC(NC5CCOCC5)CC4)nc3c2C(C)C)cn2ncnc2c1C (stereo not drawn) [Example 453]
IC50 (human TLR7): 4 nM | IC50 (human TLR8): 3.3 nM | IC50 (human TLR9): 1440 nM

Cc1c(-c2[nH]c3ccc(C4CCC(NCC(C)(C)S(C)(=O)=O)CC4)nc3c2C(C)C)cn2ncnc2c1C (stereo not drawn) [Example 454]
IC50 (human TLR7): 1.2 nM | IC50 (human TLR8): 0.68 nM | IC50 (human TLR9): 2390 nM

Cc1c(-c2[nH]c3ccc(C4CCC(NCC(C)(C)S(C)(=O)=O)CC4)nc3c2C(C)C)cn2ncnc2c1C (stereo not drawn) [Example 455]
IC50 (human TLR7): 14 nM | IC50 (human TLR8): 12 nM | IC50 (human TLR9): 9200 nM

Cc1c(-c2[nH]c3ccc(C4CCC(N(CC#N)CC(=O)N(C)C)CC4)nc3c2C(C)C)cn2ncnc2c1C (stereo not drawn) [Example 456]
IC50 (human TLR7): 2.6 nM | IC50 (human TLR8): 8.1 nM | IC50 (human TLR9): 7730 nM

Cc1c(-c2[nH]c3ccc(C4CCC(N(CC#N)CCS(C)(=O)=O)CC4)nc3c2C(C)C)cn2ncnc2c1C (stereo not drawn) [Example 457]
IC50 (human TLR7): 0.32 nM | IC50 (human TLR8): 0.3 nM | IC50 (human TLR9): 622 nM

Cc1c(-c2[nH]c3ccc(C4CCC(N(CC#N)CCS(C)(=O)=O)CC4)nc3c2C(C)C)cn2ncnc2c1C (stereo not drawn) [Example 458]
IC50 (human TLR7): 5 nM | IC50 (human TLR8): 10 nM | IC50 (human TLR9): 9840 nM

Cc1c(-c2[nH]c3ccc(C4CCC(N(CC#N)CC(=O)N(C)C)CC4)nc3c2C(C)C)cn2ncnc2c1C (stereo not drawn) [Example 459]
IC50 (human TLR7): 6.2 nM | IC50 (human TLR8): 4.3 nM | IC50 (human TLR9): 2790 nM

Cc1c(-c2[nH]c3ccc(C4CCC(N(CCO)CCS(C)(=O)=O)CC4)nc3c2C(C)C)cn2ncnc2c1C (stereo not drawn) [Example 461]
IC50 (human TLR7): 2.6 nM | IC50 (human TLR8): 1.7 nM | IC50 (human TLR9): 8470 nM

CCN(CC(=O)N(C)C)C1CCC(c2ccc3[nH]c(-c4cn5ncnc5c(C)c4C)c(C(C)C)c3n2)CC1 (stereo not drawn) [Example 462]
IC50 (human TLR7): 6.9 nM | IC50 (human TLR8): 8.4 nM | IC50 (human TLR9): 4540 nM

Cc1c(-c2[nH]c3ccc(C4CCC(N(CCO)CC(=O)N(C)C)CC4)nc3c2C(C)C)cn2ncnc2c1C (stereo not drawn) [Example 463]
IC50 (human TLR7): 7.4 nM | IC50 (human TLR8): 24 nM | IC50 (human TLR9): 16000 nM

Cc1c(-c2[nH]c3ccc(C4CCC(NCC5CCCCS5(=O)=O)CC4)nc3c2C(C)C)cn2ncnc2c1C (stereo not drawn) [Example 464]
IC50 (human TLR7): 0.68 nM | IC50 (human TLR8): 0.85 nM | IC50 (human TLR9): 1770 nM

Cc1c(-c2[nH]c3ccc(C4CCC(NC5CCS(=O)(=O)C5)CC4)nc3c2C(C)C)cn2ncnc2c1C (stereo not drawn) [Example 465]
IC50 (human TLR7): 1.1 nM | IC50 (human TLR8): 1.9 nM | IC50 (human TLR9): 5660 nM
